Reference: US12016868B2, “Boronic acid derivatives and therapeutic uses thereof” (Qpex Biopharma, Inc., priority 2018, dated 2024)

Assays:
KP1009 CTX-M-15 [1] = test: Aztreonam potentiation assay (MPC@4) and aztreonam MIC; format: cell-based; settings: strain KP1009 CTX-M-15
Method: (§1) The potency and spectrum of β-lactamase inhibitors (BLIs) was determined by assessing their aztreonam potentiation activity in a dose titration potentiation assay using strains of various bacteria that are resistant to aztreonam due to expression of various β-lactamases. Aztreonam is a monobactam antibiotic and is hydrolyzed by the majority of β-lactamases that belong to class A or C (but not class B or D). The potentiation effect was observed as the ability of BLI compounds to inhibit growth in the presence of sub-inhibitory concentration of aztreonam. […] Aztreonam was present in the test medium at 4 μg/mL. Compounds were tested at concentrations up to 20 μg/mL. In this assay, potency of compounds was reported as the minimum concentration of BLI required to inhibit growth of bacteria in the presence of 4 μg/mL of aztreonam (MPC@4). Table 1 summarizes the BLI potency of aztreonam potentiation (MPC@4) for various strains overexpressing class A (ESBL and KPC), and class C β-lactamases. Aztreonam MIC for each strain is also shown.

ECL1002 [2] = test: as above; format: cell-based; settings: strain ECL1002
Method: as §1

KP1005 CTX-M-14 [3] = test: as above; format: cell-based
Method: as §1

KP1004 KPC-2 [4] = test: as above; format: cell-based
Method: as §1

EC1010 CMY-6 [5] = test: as above; format: cell-based; settings: strain EC1010 CMY-6
Method: as §1

ec308 SHV-5 [6] = test: as above; format: cell-based; settings: strain ec308 SHV-5
Method: as §1

ec302 TEM-10 [7] = test: as above; format: cell-based; settings: strain ec302 TEM-10
Method: as §1

KP1010 SHV-12 [8] = test: as above; format: cell-based; settings: strain KP1010 SHV-12
Method: as §1

[9] = test system: strains producing class A (KPC), class D (OXA-48), and class B (NDM-1 and VIM-1) carbapenemases; test: Biapenem MIC of the test strains (panel); format: cell-based; settings: span over all test strains of Table 3
Method: (§2) β-lactamase inhibitors were also tested for their ability to potentiate the carbapenem biapenem against strains producing class A (KPC), class D (OXA-48), and class B (metallo β-lactamases, NDM-1 and VIM-1) carbapenemases. The potentiation effect was observed as the ability of BLI compounds to inhibit growth in the presence of a sub-inhibitory concentration of biapenem. […] Biapenem was present in the test medium at 1 μg/mL. Compounds were tested at concentrations up to 20 μg/mL. In this assay, potency of compounds was reported as the minimum concentration of BLI required to inhibit growth of bacteria in the presence of 1 μg/mL of biapenem (MPC@1). Table 3 summarizes the BLI potency of biapenem potentiation (MPC@1) for four strains overexpressing class A (KPC), class D (OXA-48), and class B (NDM-1 and VIM-1) carbapenemases. Biapenem MIC for each strain is also shown.

KP1081 NDM-1 = test: Biapenem potentiation assay (MPC@1) and biapenem MIC; format: cell-based; settings: strain KP1081 NDM-1
Method: as §2

KP1004 KPC-2 [10] = test: as above; format: cell-based; settings: strain KP1004 KPC-2
Method: as §2

KP1086 OXA-48 = test: as above; format: cell-based; settings: strain KP1086 OXA-48
Method: as §2

AB1053 OXA-72 = test: Meropenem potentiation assay (MPC@8) and meropenem MIC; format: cell-based, Acinetobacter baumannii; settings: A. baumannii strain AB1053 OXA-72
Method: (§3) β-lactamase inhibitors were also tested for their ability to potentiate the carbapenem meropenem against strains of Acinetobacter baumannii producing class D (OXA-23 and OXA-72) carbapenemases. […] Meropenem was present in the test medium at 8 μg/mL. Compounds were tested at concentrations up to 20 μg/mL. In this assay, potency of compounds was reported as the minimum concentration of BLI required to inhibit growth of bacteria in the presence of 8 μg/mL of meropenem (MPC@8).

AB1054 OXA-23 = test: as above; format: cell-based, Acinetobacter baumannii
Method: as §3

KP1009 CTX-M-15 [11] = test: Tigemonam potentiation assay (MPC@4) and tigemonam MIC; format: cell-based; settings: strain KP1009 CTX-M-15
Method: (§4) Selected β-lactamase inhibitors were also tested for their ability to potentiate the monobactam tigemonam. […] Tigemonam was present in the test medium at 4 μg/mL. Compounds were tested at concentrations up to 20 μg/mL. In this assay, potency of compounds was reported as the minimum concentration of BLI required to inhibit growth of bacteria in the presence of 4 μg/mL of tigemonam (MPC@4). Table 2 summarizes the BLI potency of tigemonam potentiation (MPC@4) for various strains overexpressing class A (ESBL) and class C β-lactamases.

ECL1002 [12] = test: as above; format: cell-based; settings: strain ECL1002
Method: as §4

KP1005 CTX-M-14 [13] = test: as above; format: cell-based; settings: strain KP1005 CTX-M-14
Method: as §4

EC1010 CMY-6 [14] = test: as above; format: cell-based; settings: strain EC1010 CMY-6
Method: as §4

ec308 SHV-5 [15] = test: as above; format: cell-based; settings: strain ec308 SHV-5
Method: as §4

ec302 TEM-10 [16] = test: as above; format: cell-based; settings: strain ec302 TEM-10
Method: as §4

KP1010 SHV-12 [17] = test: as above; format: cell-based; settings: strain KP1010 SHV-12
Method: as §4

KP1054 VIM-1 = test: Biapenem potentiation assay (MPC@1) and biapenem MIC; format: cell-based; settings: minimum BLI concentration inhibiting growth with biapenem 1 μg/mL; strain KP1054 VIM-1; tested up to 20 μg/mL
Method: as §2

[18] = minimum BLI concentration inhibiting growth with tigemonam 4 μg/mL, tested up to 20 μg/mL
[19] = minimum BLI concentration inhibiting growth with biapenem 1 μg/mL, tested up to 20 μg/mL
[20] = minimum BLI concentration inhibiting growth with aztreonam 4 μg/mL, tested up to 20 μg/mL

C[C@H]1[C@H](NC(=O)/C(=N\OC(C)(C)C(=O)O)c2csc(N)n2)C(=O)N1S(=O)(=O)O [Aztreonam]
MIC (KP1009 CTX-M-15 [1]; aztreonam alone): > 128 µg/mL | MIC (ECL1002 [2]; aztreonam alone): 64 µg/mL | MIC (KP1005 CTX-M-14 [3]; read-out: Aztreonam MIC): > 128 µg/mL | MIC (KP1004 KPC-2 [4]; read-out: Aztreonam MIC): > 128 µg/mL | MIC (EC1010 CMY-6 [5]; aztreonam alone): > 128 µg/mL | MIC (ec308 SHV-5 [6]; aztreonam alone): > 128 µg/mL | MIC (ec302 TEM-10 [7]; aztreonam alone): 128 µg/mL | MIC (KP1010 SHV-12 [8]; aztreonam alone): 64 µg/mL

C[C@@H](O)[C@H]1C(=O)N2C(C(=O)[O-])=C(SC3Cn4cnc[n+]4C3)[C@H](C)[C@H]12 (stereo partly drawn) [Biapenem]
MIC [9]: 16 to 32 µg/mL | MIC (KP1081 NDM-1; biapenem alone): 16 µg/mL | MIC (KP1004 KPC-2 [10]; biapenem alone): 32 µg/mL | MIC (KP1086 OXA-48; biapenem alone): 16 µg/mL

COc1ccc2c(c1C(=O)O)OB(O)CC2Cn1cc(CO)nn1 (stereo not drawn) [Compound 16, 2-hydroxy-4-[[4-(hydroxymethyl)triazol-1-yl]methyl]-7-methoxy-3,4-dihydro-1,2-benzoxaborinine-8-carboxylic Acid]
MPM MPC8 AB1053 OXA-72 (AB1053 OXA-72; minimum BLI concentration inhibiting growth with meropenem 8 μg/mL, tested up to 20 μg/mL): X (X = MPC@1 ≤ 5 μg/mL) | MPM MPC8 AB1054 OXA-23 (AB1054 OXA-23; minimum BLI concentration inhibiting growth with meropenem 8 μg/mL, A. baumannii strain AB1054 OXA-23, tested up to 20 μg/mL): Y (Y = 5 μg/mL < MPC@1 ≤ 20 μg/mL) | TIG MPC4 CTX-M-15 KP1009 (KP1009 CTX-M-15 [11]; [18]): X (X = MPC@4 ≤ 5 μg/mL) | TIG MPC4 ECL1002 (ECL1002 [12]; [18]): X (X = MPC@4 ≤ 5 μg/mL) | TIG MPC4 CTX-M-14 KP1005 (KP1005 CTX-M-14 [13]; [18]): Y (Y = 5 μg/mL < MPC@4 ≤ 20 μg/mL) | TIG MPC4 CMY-6 EC1010 (EC1010 CMY-6 [14]; [18]): X (X = MPC@4 ≤ 5 μg/mL) | TIG MPC4 SHV-5 ec308 (ec308 SHV-5 [15]; [18]): X (X = MPC@4 ≤ 5 μg/mL) | TIG MPC4 TEM-10 ec302 (ec302 TEM-10 [16]; [18]): Y (Y = 5 μg/mL < MPC@4 ≤ 20 μg/mL) | TIG MPC4 SHV-12 KP1010 (KP1010 SHV-12 [17]; [18]): X (X = MPC@4 ≤ 5 μg/mL) | BPM MPC1 KP1081 NDM-1 (KP1081 NDM-1; [19]): Y (Y = 5 μg/mL < MPC@1 ≤ 20 μg/mL) | BPM MPC1 KP1004 KPC-2 (KP1004 KPC-2 [10]; [19]): X (X = MPC@1 ≤ 5 μg/mL) | BPM MPC1 KP1054 VIM-1 (KP1054 VIM-1): Y (Y = 5 μg/mL < MPC@1 ≤ 20 μg/mL) | BPM MPC1 OXA-48 KP1086 (KP1086 OXA-48; [19]): Y (Y = 5 μg/mL < MPC@1 ≤ 20 μg/mL) | AZT MPC4 CTX-M-15 KP1009 (KP1009 CTX-M-15 [1]; [20]): X (X = MPC@4 ≤ 5 μg/mL) | AZT MPC4 ECL1002 (ECL1002 [2]; [20]): X (X = MPC@4 ≤ 5 μg/mL) | AZT MPC4 CTX-M-14 KP1005 (KP1005 CTX-M-14 [3]; minimum BLI concentration inhibiting growth with aztreonam 4 μg/mL, strain KP1005 CTX-M-14, tested up to 20 μg/mL): X (X = MPC@4 ≤ 5 μg/mL) | AZT MPC4 KPC-2 KP1004 (KP1004 KPC-2 [4]; minimum BLI concentration inhibiting growth with aztreonam 4 μg/mL, strain KP1004 KPC-2, tested up to 20 μg/mL): X (X = MPC@4 ≤ 5 μg/mL) | AZT MPC4 CMY-6 EC1010 (EC1010 CMY-6 [5]; [20]): X (X = MPC@4 ≤ 5 μg/mL) | AZT MPC4 SHV-5 ec308 (ec308 SHV-5 [6]; [20]): X (X = MPC@4 ≤ 5 μg/mL) | AZT MPC4 TEM-10 ec302 (ec302 TEM-10 [7]; [20]): X (X = MPC@4 ≤ 5 μg/mL) | AZT MPC4 SHV-12 KP1010 (KP1010 SHV-12 [8]; [20]): X (X = MPC@4 ≤ 5 μg/mL)

C[C@@H](O)[C@H]1C(=O)N2C(C(=O)O)=C(S[C@@H]3CN[C@H](C(=O)N(C)C)C3)[C@H](C)[C@H]12 [Meropenem]
MIC (AB1053 OXA-72; Acinetobacter baumannii, meropenem alone): > 64 µg/mL | MIC (AB1054 OXA-23; Acinetobacter baumannii, read-out: Meropenem MIC): 32 µg/mL

CC1(C)[C@H](NC(=O)/C(=N\OCC(=O)O)c2csc(N)n2)C(=O)N1OS(=O)(=O)O [Tigemonam]
Tigemonam MIC (KP1009 CTX-M-15 [11]; tigemonam alone): >64 µg/mL | Tigemonam MIC (ECL1002 [12]; tigemonam alone): 32 µg/mL | Tigemonam MIC (KP1005 CTX-M-14 [13]; tigemonam alone): >64 µg/mL | Tigemonam MIC (EC1010 CMY-6 [14]; tigemonam alone): 16 µg/mL | Tigemonam MIC (ec308 SHV-5 [15]; tigemonam alone): >64 µg/mL | Tigemonam MIC (ec302 TEM-10 [16]; tigemonam alone): >64 µg/mL | Tigemonam MIC (KP1010 SHV-12 [17]; tigemonam alone): >64 µg/mL
